Measured values taken from patent US9910031B2, “Compositions and methods for modulating c-Rel-dependent cytokine production” (Synta Pharmaceuticals Corporation, priority 2003, dated 2018).

Legend:
IL-12 p35 mRNA = experiment: Northern blot of IL-12 p35 mRNA in IFN-γ/SAC-stimulated human PBMC; assay type: cell-based; details: hPBMC
Protocol: Northern blot analysis was performed to examine the mRNA levels of IL-12 p35 and p40. Human PBMC and the human monocyte cell line THP-1 cells were stimulated with IFN-γ/SAC in the presence or absence of Compound 1. Human PBMC were isolated by centrifugation using Ficoll-Paque (Pharmacia Biotech, Uppsala, Sweden) and prepared in RPMI medium supplemented with 10% fetal calf serum (FCS), 100 U/ml penicillin, and 100 μg/ml streptomycin, in a 96-well plate with 5×10^5 cells/well. The cells were then primed with IFN-γ (100 U/ml) and followed by 0.01% SAC or 1 μg/ml LPS, in the presence of different concentrations of Compound 2 or other compounds. The test compounds were prepared in DMSO and the final DMSO concentration was adjusted to 0.25% in all cultures, including the compound-free control. Cell-free supernatants were taken 18 h later for the measurement of cytokines. The THP-1 cells were obtained from American Type Culture Collection (Manassas, Va.) and were cultured in RPMI 1640 (ATCC, Manassas, Va.), supplemented with 10% FCS (ATCC, Manassas, Va.), and 1% penicillin/Streptomycin (Gibco-BRL, New York, N.Y.). Total RNA was isolated and subjected to Northern blot analysis using IL-12 p35 and p40 cDNA probes. We first examined the kinetics of mRNA accumulation in cultures of hPBMC and THP-1 cells primed with IFN-γ followed by SAC stimulation in the presence or absence of 1 μM Compound 1.
We conducted a dose-response study of the inhibitory effects of Compound 1 on IL-12 mRNA expression in IFN-γ/SAC-stimulated hPBMC. Because both IL-12 p35 and p40 mRNA levels were maximal at 6 h after the addition of SAC, this time point was selected for the dose-response analysis.

[1] = tested on: IL-12 production in THP-1 cells; experiment: Inhibition of IL-12 production in THP-1 cells (ELISA); assay type: cell-based; details: Homo sapiens, read-out: IC50 against IL-12 production
Source text: The foregoing and other useful combination therapies will be understood and appreciated by those of skill in the art. Potential advantages of such combination therapies include the ability to use less of each of the individual active ingredients to minimize toxic side effects, synergistic improvements in efficacy, improved ease of administration or use and/or reduced overall expense of compound preparation or formulation. The biological activities of a compound of this invention can be evaluated by a number of cell-based assays. One of such assays can be conducted using cells from human peripheral blood mononuclear cells (PBMC) or human monocytic cell line (THP-1). The cells are stimulated with a combination of human interferon-γ (IFN-γ) and lipopolysaccharide or a combination of IFN-γ and Staphylococcus aureus Cowan I in the presence of a test compound. The level of inhibition of IL-12 production can be measured by, e.g., determining the amount of p70 by using a sandwich ELBA assay with anti-human IL-12 antibodies. IC50 of the test compound can then be determined. Specifically, PBMC or THP-1 cells are incubated with the test compound. Cell viability was assessed using the bioreduction of MTS [3-(4,5-dimethylthiazol-2-yl)-5-(3-carboxymethoxyphenyl)-2-(4-sulfophenyl)-2H-tetrazolium] (Promega, Madison, Wis.). […]

IC50 (IL-12 p35 mRNA; Homo sapiens, PBMC, 6 h after SAC, read-out: IC50, IL-12 p35 mRNA accumulation) | Structure (SMILES) | expression of p35 mRNA (IL-12 p35 mRNA; 1 μM Compound 1, all sampling times) | induction of IL-12 p35 mRNA accumulation (IL-12 p35 mRNA; 6 h after SAC, 3 nM) | IC50 [1]
< 1 nM | C(=NNc1nc(OCCc2ccccn2)nc(N2CCOCC2)n1)c1c[nH]c2ccccc12 [Compound 1, N-(1H-indol-3-ylmethylene)-N′-[4-morpholin-4-yl-6-(2-pyridin-2-yl-ethoxy)-[1,3,5]triazin-2-yl]-hydrazine] | completely inhibited | completely reversed | 40 nM
 | Cc1cccc(C=NNc2cc(N3CCOCC3)nc(OCCc3ccccn3)n2)c1 [Compound 2, N-(3-methyl-benzylidene)-N′-[6-morpholin-4-yl-2-(2-pyridin-2-yl-ethoxy)-pyrimidin-4-yl]-hydrazine] |  |  | 10 nM
